Measured values reported in PubChem BioAssay AID248 (DTP/NCI, 2004).
“And” between values parts separate entries of the source, which are not always exact repeats. Equal entries are not always repeated. Inconclusive results and toxic doses are left out. No stated cut-off is given here; in the data, active means T/C of 150% or more; inactive means T/C below 125%.

Tested on: L1210 leukemia ip in BDF1 mice, survival T/C
Test: NCI In Vivo Anticancer Drug Screen. Data for tumor model L1210 Leukemia (intraperitoneal) in B6D2F1 (BDF1) mice
Settings: endpoint: mean survival time, higher = longer survival
Method in brief: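 Survival endpoint. Drug-treated group vs vehicle group, expressed as T divided by C. Tumor passaged by transplantation.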

[1] = dose: 100.0 mg/kg/injection, schedule: Q01DX009 (ip), vehicle: saline with Tween-80
[2] = dose: 200.0 mg/kg/injection, schedule: Q01DX009 (ip), vehicle: saline with Tween-80
[3] = dose: 50.0 mg/kg/injection, schedule: Q01DX001 (ip), vehicle: carboxymethylcellulose (CMC)
[4] = dose: 100.0 mg/kg/injection, schedule: Q01DX001 (ip), vehicle: carboxymethylcellulose (CMC)
[5] = dose: 200.0 mg/kg/injection, schedule: Q01DX001 (ip), vehicle: carboxymethylcellulose (CMC)
[6] = dose: 400.0 mg/kg/injection, schedule: Q01DX001 (ip), vehicle: carboxymethylcellulose (CMC)
[7] = dose: 100.0 mg/kg/injection, schedule: Q01DX001 (ip), vehicle: saline with Tween-80
[8] = dose: 100.0 mg/kg/injection, schedule: Q01DX001 (ip), vehicle: saline
[9] = dose: 100.0 mg/kg/injection, schedule: Q04DX003 (ip), vehicle: saline with Tween-80
[10] = dose: 200.0 mg/kg/injection, schedule: Q04DX003 (ip), vehicle: saline with Tween-80
[11] = dose: 400.0 mg/kg/injection, schedule: Q04DX003 (ip), vehicle: saline with Tween-80
[12] = dose: 100.0 mg/kg/injection, schedule: Q01DX009 (ip), vehicle: Klucel (hydroxypropylcellulose) (HPC)
[13] = dose: 100.0 mg/kg/injection, schedule: Q04DX003 (ip), vehicle: Klucel (hydroxypropylcellulose) (HPC)
[14] = dose: 200.0 mg/kg/injection, schedule: Q04DX003 (ip), vehicle: Klucel (hydroxypropylcellulose) (HPC)
[15] = dose: 25.0 mg/kg/injection, schedule: Q01DX009 (ip), vehicle: saline with Tween-80
[16] = dose: 50.0 mg/kg/injection, schedule: Q01DX009 (ip), vehicle: saline with Tween-80
[17] = dose: 400.0 mg/kg/injection, schedule: Q04DX003 (ip), vehicle: Klucel (hydroxypropylcellulose) (HPC)
[18] = dose: 200.0 mg/kg/injection, schedule: Q01DX001 (ip), vehicle: saline
[19] = dose: 400.0 mg/kg/injection, schedule: Q01DX001 (ip), vehicle: saline

Measured: T/C

COc1ccc(C(=O)C(C)C)cc1
inactive: dose: 37.5 mg/kg/injection, schedule: Q01DX009 (ip), vehicle: saline sonified 95 % of control | dose: 75.0 mg/kg/injection, schedule: Q01DX009 (ip), vehicle: saline sonified 93 % of control | dose: 150.0 mg/kg/injection, schedule: Q01DX009 (ip), vehicle: saline sonified 103 % of control

CCCC(Cl)C(=O)Nc1cccc(O)c1 (stereo unspecified)
inactive: [1] 91 % of control | [2] 91 % of control

O=C1/C(=C\C=C\c2ccccc2)CCCC/C1=C\C=C\c1ccccc1
inactive: [3] 97 % of control | [4] 90 % of control | [5] 97 % of control | [6] 92 % of control

COC(=O)c1cccc2cn3ccc4c5ccccc5nc-4c3cc12
inactive: dose: 25.0 mg/kg/injection, schedule: Q01DX001 (ip), vehicle: saline with Tween-80 98 % of control | dose: 50.0 mg/kg/injection, schedule: Q01DX001 (ip), vehicle: saline with Tween-80 92 % of control | [7] 95 % of control and 92 % of control | dose: 400.0 mg/kg/injection, schedule: Q01DX001 (ip), vehicle: saline with Tween-80 92 % of control

N[n+]1ccccc1
inactive: dose: 100.0 mg/kg/injection, schedule: Q04DX002 (ip), vehicle: saline with Tween-80 102 % of control | dose: 200.0 mg/kg/injection, schedule: Q04DX002 (ip), vehicle: saline with Tween-80 102 % of control | dose: 400.0 mg/kg/injection, schedule: Q04DX002 (ip), vehicle: saline with Tween-80 98 % of control

CCS(=O)(=O)c1nc2ccccc2[nH]1
inactive: dose: 100.0 mg/kg/injection, schedule: Q04DX002 (ip), vehicle: Klucel (hydroxypropylcellulose) (HPC) 97 % of control | dose: 200.0 mg/kg/injection, schedule: Q04DX002 (ip), vehicle: Klucel (hydroxypropylcellulose) (HPC) 108 % of control | dose: 400.0 mg/kg/injection, schedule: Q04DX002 (ip), vehicle: Klucel (hydroxypropylcellulose) (HPC) 108 % of control

O=CC(CO)CC(C=O)n1cnc2c(=O)[nH]cnc21 (stereo unspecified)
inactive: [8] 114 % of control

Clc1ccccc1Br
inactive: dose: 100.0 mg/kg/injection, schedule: Q01DX007 (ip), vehicle: saline with Tween-80 104 % of control | [9] 95 % of control | dose: 200.0 mg/kg/injection, schedule: Q01DX007 (ip), vehicle: saline with Tween-80 98 % of control | [10] 96 % of control | dose: 400.0 mg/kg/injection, schedule: Q01DX007 (ip), vehicle: saline with Tween-80 96 % of control | [11] 98 % of control

COc1ccccc1/C=N\NC(=S)Nc1ccc(F)cc1
inactive: dose: 60.0 mg/kg/injection, schedule: Q01DX Z (oral), vehicle: methylcellulose (MC) 106 % of control | dose: 120.0 mg/kg/injection, schedule: Q01DX Z (oral), vehicle: methylcellulose (MC) 90 % of control | dose: 240.0 mg/kg/injection, schedule: Q01DX Z (ip), vehicle: methylcellulose (MC) 92 % of control | dose: 240.0 mg/kg/injection, schedule: Q01DX Z (oral), vehicle: methylcellulose (MC) 96 % of control | dose: 480.0 mg/kg/injection, schedule: Q01DX Z (ip), vehicle: methylcellulose (MC) 91 % of control | dose: 480.0 mg/kg/injection, schedule: Q01DX Z (oral), vehicle: methylcellulose (MC) 93 % of control

CCOC(=O)C(C(=O)OCC)C(=O)c1cc(-c2ccc(Cl)c(Cl)c2)nc2c(Cl)cc(Cl)cc12
inactive: dose: 50.0 mg/kg/injection, schedule: Q01DX009 (ip), vehicle: Klucel (hydroxypropylcellulose) (HPC) 98 % of control | [12] 104 % of control | [13] 101 % of control | [14] 109 % of control

O=C(O)c1ccc(CCc2cccnc2)cc1
inactive: [7] 96 % of control | dose: 200.0 mg/kg/injection, schedule: Q01DX001 (ip), vehicle: saline with Tween-80 98 % of control

O=C(OC1CC2CC=CC21)c1ccc([N+](=O)[O-])cc1 (stereo unspecified)
inactive: [9] 96 % of control | [10] 98 % of control | [11] 94 % of control

O=C(Nc1ccccc1)C1=C(Nc2ccccc2)CSC1
inactive: [15] 109 % of control | [16] 100 % of control | [1] 94 % of control | [2] 98 % of control | dose: 400.0 mg/kg/injection, schedule: Q01DX009 (ip), vehicle: saline with Tween-80 89 % of control

CCNC(=O)CS(=O)(=O)c1ccc(N)cc1
inactive: dose: 100.0 mg/kg/injection, schedule: Q04DX003 (ip), vehicle: saline 100 % of control | dose: 200.0 mg/kg/injection, schedule: Q04DX003 (ip), vehicle: saline 108 % of control | dose: 400.0 mg/kg/injection, schedule: Q04DX003 (ip), vehicle: saline 105 % of control

CC(C)C(=O)c1ccc(-c2ccccc2)cc1
inactive: dose: 25.0 mg/kg/injection, schedule: Q01DX009 (ip), vehicle: water 101 % of control | dose: 50.0 mg/kg/injection, schedule: Q01DX009 (ip), vehicle: water 106 % of control | dose: 100.0 mg/kg/injection, schedule: Q01DX009 (ip), vehicle: water 98 % of control | dose: 200.0 mg/kg/injection, schedule: Q01DX009 (ip), vehicle: water 95 % of control | dose: 400.0 mg/kg/injection, schedule: Q01DX009 (ip), vehicle: water 93 % of control

ClC1=C(Br)C(Br)(Br)C(=C(Br)Br)C1(Br)Br
inactive: dose: 100.0 mg/kg/injection, schedule: Q01DX009 (ip), vehicle: saline sonified 96 % of control | [13] 106 % of control | dose: 200.0 mg/kg/injection, schedule: Q01DX009 (ip), vehicle: saline sonified 94 % of control | [14] 103 % of control | dose: 400.0 mg/kg/injection, schedule: Q01DX009 (ip), vehicle: saline sonified 102 % of control | [17] 97 % of control

N#CC(Nc1ncccn1)c1ccccc1 (stereo unspecified)
inactive: [16] 104 % of control | [1] 93 % of control | [2] 104 % of control

COc1ccc(C2=C(c3ccccc3)C(c3ccccc3)=C(c3ccc(OC)cc3)C2=O)cc1
inactive: [4] 89 % of control | [5] 89 % of control | [6] 91 % of control

CNc1ccccc1C(N)=O
inactive: [12] 106 % of control | [13] 105 % of control | dose: 200.0 mg/kg/injection, schedule: Q01DX009 (ip), vehicle: Klucel (hydroxypropylcellulose) (HPC) 98 % of control | [14] 102 % of control | dose: 400.0 mg/kg/injection, schedule: Q01DX009 (ip), vehicle: Klucel (hydroxypropylcellulose) (HPC) 101 % of control | [17] 96 % of control

CCC1CN2CCc3cc(OC)c(OC)cc3C2CC1CC1c2cc(OC)c(OC)cc2CCN1C(=O)C1CCCN1C(=O)OCc1ccccc1 (stereo unspecified)
inactive: [3] 97 % of control | [4] 101 % of control | [5] 106 % of control | [6] 97 % of control

O=[N+]([O-])c1cc(Cl)ccc1N1CCCC1
inactive: [1] 89 % of control | [2] 99 % of control

O=C(O)c1ccccc1C(=O)c1ccc(F)cc1
inactive: [8] 96 % of control | [18] 102 % of control | [19] 93 % of control

Cc1coc(NS(=O)(=O)c2ccc(N=Nc3c(N)nc(N)[nH]c3=O)cc2)c1C
inactive: [8] 109 % of control | [18] 102 % of control | [19] 105 % of control

CC1=CC(O)CCC1 (stereo unspecified)
inactive: [9] 104 % of control | [10] 109 % of control | [11] 93 % of control

CCCCCCCCCCCCC(=O)OC
inactive: [9] 101 % of control | [10] 96 % of control | [11] 98 % of control

Cc1cc(N(CCOS(C)(=O)=O)CCOS(C)(=O)=O)ccc1C=Nc1ccc(C(=O)O)c(O)c1
inactive: dose: 4.0 mg/kg/injection, schedule: Q01DX009 (ip), vehicle: saline with Tween-80 111 % of control | dose: 6.0 mg/kg/injection, schedule: Q01DX009 (ip), vehicle: saline with Tween-80 119 % of control

NC(=O)N/N=C\c1ccco1
inactive: dose: 25.0 mg/kg/injection, schedule: Q04DX003 (ip), vehicle: saline with Tween-80 106 % of control | dose: 50.0 mg/kg/injection, schedule: Q04DX003 (ip), vehicle: saline with Tween-80 100 % of control | [13] 106 % of control | [9] 94 % of control | [14] 102 % of control | [17] 98 % of control

Fc1ccc(N2CCNCC2)cc1
inactive: dose: 12.5 mg/kg/injection, schedule: Q01DX009 (ip), vehicle: saline with Tween-80 104 % of control | [15] 104 % of control | [16] 107 % of control
